Tests used:
[1] = test system: MCF7-WT cells (MCF7 ER-alpha wildtype); assay: In vitro proliferation (viability) assay, CellTiter-Glo, MCF7-WT cells; type: cell-based; details: Homo sapiens; MCF7-WT cells, 6 days, CTG vs day 0; mean ± SD-type spread (n); read-out: GI50 WT
[2] = test system: MCF7-Y537S cells (MCF7 ER-alpha Y537S mutant); assay: In vitro proliferation (viability) assay, CellTiter-Glo, MCF7-Y537S cells; type: cell-based; details: Homo sapiens; MCF7-Y537S cells, 6 days, CTG vs day 0; mean ± SD-type spread (n); read-out: GI50 MUT (Y537S)
Procedure, shortened: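 Stable lentiviral MCF7 lines expressing WT or Y537S ESR1 seeded at 1500 cells/well; next day dosed with 10-point 1:4 dilutions in triplicate, with media/compound refreshed on day 3. CellTiter-Glo luminescence on day 6 compared with a day 0 reading to give GI50.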

SMILES	GI50 [1] [nM]	GI50 [2] [nM]
CC/C(=C(/c1ccc(OCCNC/C=C/C(=O)N(C)C)cc1)c1ccc2[nH]nc(F)c2c1)c1ccccc1Cl [Compound 73, (E)-4-((2-(4-((E)-2-(2-chlorophenyl)-1-(3-fluoro-1H-indazol-5-yl)but-1-en-1-yl)phenoxy)ethyl)amino)-N,N-dimethylbut-2-enamide]	1.7	40.5
CC/C(=C(/c1ccc(OCCNC/C=C/C(=O)N(C)C)cc1)c1ccc2[nH]ncc2c1)c1ccc(F)cc1Cl [Compound 74, (E)-4-((2-(4-((E)-2-(2-chloro-4-fluorophenyl)-1-(1H-indazol-5-yl)but-1-en-1-yl)phenoxy)ethyl)amino)-N,N-dimethylbut-2-enamide]	1.8 ± 0.5	28.8 ± 14
CC/C(=C(/c1ccc(OCCNC/C=C/C(=O)N(C)CCO)cc1)c1ccc2[nH]nc(F)c2c1)c1ccncc1 [Compound 75, (E)-4-((2-(4-((E)-1-(3-fluoro-1H-indazol-5-yl)-2-(pyridin-4-yl)but-1-en-1-yl)phenoxy)ethyl)amino)-N-(2-hydroxyethyl)-N-methylbut-2-enamide]	3.2	72.2
CC/C(=C(/c1ccc(OCCNC/C=C/C(=O)N(C)C)cc1)c1cc(F)c2[nH]ncc2c1)c1ccccc1 [Compound 76, (E)-4-((2-(4-((E)-1-(7-fluoro-1H-indazol-5-yl)-2-phenylbut-1-en-1-yl)phenoxy)ethyl)amino)-N,N-dimethylbut-2-enamide]	1.2	32.2
CCC/C(=C(/c1ccc(OCCNC/C=C/C(=O)N(C)C)cc1)c1ccc2[nH]nc(F)c2c1)c1ccccc1 [Compound 77, (E)-4-((2-(4-((E)-1-(3-fluoro-1H-indazol-5-yl)-2-phenylpent-1-en-1-yl)phenoxy)ethyl)amino)-N,N-dimethylbut-2-enamide]	2.4	35
CC/C(=C(/c1ccc(OCCNC/C=C/C(=O)N(C)C)cc1)c1cc(F)c2[nH]nc(F)c2c1)c1ccccc1 [Compound 79, (E)-4-((2-(4-((E)-1-(3,7-difluoro-1H-indazol-5-yl)-2-phenylbut-1-en-1-yl)phenoxy)ethyl)amino)-N,N-dimethylbut-2-enamide]	6.9	92.5
CC/C(=C(/c1ccc(OCCNC/C=C/C(=O)N(C)C)cc1)c1ccc2[nH]nc(F)c2c1)c1cc(F)ccc1F [Compound 80, (E)-4-((2-(4-((E)-2-(2,5-difluorophenyl)-1-(3-fluoro-1H-indazol-5-yl)but-1-en-1-yl)phenoxy)ethyl)amino)-N,N-dimethylbut-2-enamide]	2	33.6
CC/C(=C(/c1ccc(OCCNC/C=C/C(=O)N(C)C)cc1)c1ccc2[nH]nc(F)c2c1)c1ccncc1F [Compound 81, (E)-4-((2-(4-((E)-1-(3-fluoro-1H-indazol-5-yl)-2-(3-fluoropyridin-4-yl)but-1-en-1-yl)phenoxy)ethyl)amino)-N,N-dimethylbut-2-enamide]	0.3	13
CC(C)/C(=C(/c1ccc(OCCNC/C=C/C(=O)N(C)C)cc1)c1ccc2[nH]nc(F)c2c1)c1ccccc1 [Compound 82, (E)-4-((2-(4-((E)-1-(3-fluoro-1H-indazol-5-yl)-3-methyl-2-phenylbut-1-en-1-yl)phenoxy)ethyl)amino)-N,N-dimethylbut-2-enamide]	4.65 ± 2.9	93.7 ± 6.3
CN(C)C(=O)/C=C/CNCCOc1ccc(/C(=C(/CCF)c2ccccc2)c2ccc3[nH]nc(F)c3c2)cc1 [Compound 84]	2.15 ± 0.15	34.9 ± 1.5
CC/C(=C(/c1ccc(OCCNCC/C=C/C(=O)N(C)C)cc1)c1ccc2[nH]nc(F)c2c1)c1ccc(F)cc1Cl [Compound 85]	1.56 ± 0.56	28.4 ± 2.9
CC/C(=C(/c1ccc(OCCNC/C=C(\C)C(=O)N(C)C)cc1)c1ccc2[nH]nc(F)c2c1)c1ccc(F)cc1Cl [Compound 86]	1.73 ± 1	29.4 ± 4.7
CN(C)C(=O)/C=C/CNCCOc1ccc(/C(=C(/CC(F)(F)F)c2ccc(F)cc2Cl)c2ccc3[nH]nc(F)c3c2)cc1 [Compound 87, (E)-4-((2-(4-((E)-2-(2-chloro-4-fluorophenyl)-4,4,4-trifluoro-1-(3-fluoro-1H-indazol-5-yl)but-1-en-1-yl)phenoxy)ethyl)amino)-N,N-dimethylbut-2-enamide]	0.25	21.9
[2H]c1c([2H])c([2H])c(/C(CC)=C(\c2ccc(OCCNC/C=C/C(=O)N(C)C)cc2)c2ccc3[nH]ncc3c2)c([2H])c1[2H] [Compound 88, (E)-4-((2-(4-((E)-1-(1H-indazol-5-yl)-2-(phenyl-d5)but-1-en-1-yl)phenoxy)ethyl)amino)-N,N-dimethylbut-2-enamide]	0.7	12.5
CC/C(=C(/c1ccc(OCCNC(C)/C=C/C(=O)N(C)C)cc1)c1ccc2[nH]ncc2c1)c1ccccc1 (centres unmarked) [Compound 89, (E)-4-((2-(4-((E)-1-(1H-indazol-5-yl)-2-phenylbut-1-en-1-yl)phenoxy)ethyl)amino)-N,N-dimethylpent-2-enamide]	2.8	35
CC/C(=C(/c1ccc(OC(C)CNC/C=C/C(=O)N(C)C)cc1)c1ccc2[nH]ncc2c1)c1ccccc1 (centres unmarked) [Compound 90, (E)-4-((2-(4-((E)-1-(1H-indazol-5-yl)-2-phenylbut-1-en-1-yl)phenoxy)propyl)amino)-N,N-dimethylbut-2-enamide]	2.5	22.7
CC/C(=C(/c1ccc(OCC(C)NC/C=C/C(=O)N(C)C)cc1)c1ccc2[nH]ncc2c1)c1ccccc1 (centres unmarked) [Compound 92, (E)-4-((1-(4-((E)-1-(1H-indazol-5-yl)-2-phenylbut-1-en-1-yl)phenoxy)propan-2-yl)amino)-N,N-dimethylbut-2-enamide]	2.3	26.9
CC/C(=C(\c1ccc2[nH]nc(F)c2c1)c1ccc(OCCNC/C=C/C(=O)N(C)C)cn1)c1ccccc1 [Compound 93, (E)-4-((2-((6-((Z)-1-(3-fluoro-1H-indazol-5-yl)-2-phenylbut-1-en-1-yl)pyridin-3-yl)oxy)ethyl)amino)-N,N-dimethylbut-2-enamide]	12.4	369
CC/C(=C(/c1ccc(OCCCNC/C=C/C(=O)N(C)C)cc1)c1ccc2[nH]ncc2c1)c1ccccc1 [Compound 95, (E)-4-((3-(4-((E)-1-(1H-indazol-5-yl)-2-phenylbut-1-en-1-yl)phenoxy)propyl)amino)-N,N-dimethylbut-2-enamide]	1.8	32.4
CC/C(=C(/c1ccc(OC(C)C(C)NC/C=C/C(=O)N(C)C)cc1)c1ccc2[nH]ncc2c1)c1ccccc1 (centres unmarked) [Compound 96, (E)-4-((3-(4-((E)-1-(1H-indazol-5-yl)-2-phenylbut-1-en-1-yl)phenoxy)butan-2-yl)amino)-N,N-dimethylbut-2-enamide]	2	27.2
CC/C(=C(/c1ccc(OCC(C)(C)NC/C=C/C(=O)N(C)C)cc1)c1ccc2[nH]ncc2c1)c1ccccc1 [Compound 98, (E)-4-((1-(4-((E)-1-(1H-indazol-5-yl)-2-phenylbut-1-en-1-yl)phenoxy)-2-methylpropan-2-yl)amino)-N,N-dimethylbut-2-enamide]	0.4	13.4
CC/C(=C(/c1ccc(OC(C)(C)CNC/C=C/C(=O)N(C)C)cc1)c1ccc2[nH]ncc2c1)c1ccccc1 [Compound 99, (E)-4-((2-(4-((E)-1-(1H-indazol-5-yl)-2-phenylbut-1-en-1-yl)phenoxy)-2-methylpropyl)amino)-N,N-dimethylbut-2-enamide]	2.7	81.4

Source: US10851065B2 (Eisai R&D Management Co., Ltd., priority 2015, dated 2020)
